Experiment: xn = mol fraction of the nth substance listed
Details: 100 kPa, Liquid; for viscosity: Falling or rolling sphere viscometry; for mass density: Vibrating tube method

CC[N+]1(C)CCCC1.O=C([O-])CO [1-ethyl-1-methylpyrrolidinium glycolate] + O
Details	mass density [kg/m3]	viscosity [mPa·s]
298.15 K, x1 = 0.0541	1057.7	–
298.15 K, x1 = 0.1293	1100.6	11.8
298.15 K, x1 = 0.2024	1118.3	25.2
298.15 K, x1 = 0.2905	1127.2	46.2
298.15 K, x1 = 0.3464	1130	61.1
298.15 K, x1 = 0.4258	1132.3	84
298.15 K, x1 = 0.5357	1133.9	119
298.15 K, x1 = 0.6086	1134.3	145
298.15 K, x1 = 0.729	1134.7	195
298.15 K, x1 = 0.825	1134.5	241
298.15 K, x1 = 0.8839	1134.3	271
303.15 K, x1 = 0.0541	1055.1	–
303.15 K, x1 = 0.1293	1097.2	9.63
303.15 K, x1 = 0.2024	1114.7	19.9
303.15 K, x1 = 0.2905	1123.6	37.2
303.15 K, x1 = 0.3464	1126.5	48.2
303.15 K, x1 = 0.4258	1128.8	65
303.15 K, x1 = 0.5357	1130.4	90.6
303.15 K, x1 = 0.6086	1130.9	110
303.15 K, x1 = 0.729	1131.3	146
303.15 K, x1 = 0.825	1131.1	179
303.15 K, x1 = 0.8839	1130.9	200
308.15 K, x1 = 0.0541	1052.3	–
308.15 K, x1 = 0.1293	1093.7	8
308.15 K, x1 = 0.2024	1111.2	16.5
308.15 K, x1 = 0.2905	1120.1	30
308.15 K, x1 = 0.3464	1123	38.3
308.15 K, x1 = 0.4258	1125.4	51.4
308.15 K, x1 = 0.5357	1127	70.8
308.15 K, x1 = 0.6086	1127.5	85.4
308.15 K, x1 = 0.729	1127.9	112
308.15 K, x1 = 0.825	1127.7	137
308.15 K, x1 = 0.8839	1127.6	152
313.15 K, x1 = 0.0541	1049.5	–
313.15 K, x1 = 0.1293	1090.3	6.75
313.15 K, x1 = 0.2024	1107.6	13.5
313.15 K, x1 = 0.2905	1116.6	23.5
313.15 K, x1 = 0.3464	1119.5	30.5
313.15 K, x1 = 0.4258	1121.9	41.3
313.15 K, x1 = 0.5357	1123.6	56.4
313.15 K, x1 = 0.6086	1124.1	67.6
313.15 K, x1 = 0.729	1124.6	87.7
313.15 K, x1 = 0.825	1124.4	106
313.15 K, x1 = 0.8839	1124.3	119
318.15 K, x1 = 0.0541	1046.6	–
318.15 K, x1 = 0.1293	1086.8	5.69
318.15 K, x1 = 0.2024	1104	11.6
318.15 K, x1 = 0.2905	1113.1	20
318.15 K, x1 = 0.3464	1116	25.4
318.15 K, x1 = 0.4258	1118.5	33.8
318.15 K, x1 = 0.5357	1120.3	45.7
318.15 K, x1 = 0.6086	1120.8	54.2
318.15 K, x1 = 0.729	1121.3	70
318.15 K, x1 = 0.825	1121.1	83.6
318.15 K, x1 = 0.8839	1121	92.8
323.15 K, x1 = 0.1293	–	4.85
323.15 K, x1 = 0.2024	–	9.82
323.15 K, x1 = 0.2905	–	16.4
323.15 K, x1 = 0.3464	–	20.9
323.15 K, x1 = 0.4258	–	27.7
323.15 K, x1 = 0.5357	–	37.5
323.15 K, x1 = 0.6086	–	44.5
323.15 K, x1 = 0.729	–	56.6
323.15 K, x1 = 0.825	–	67
323.15 K, x1 = 0.8839	–	74.6
